Experiments:
HBL1^WT = assay: Growth inhibition assay (CellTiter Glo), HBL1 cells expressing BCL10 WT; format: cell-based; conditions: Homo sapiens, 96 h, read-out: IC50, growth inhibition, MALT1 inhibitors
Procedure: (§1) DLBCL cell lines were cultured in exponential condition and the cell growth was determined by CellTiter Glo (Promega). 3000-5000 cells were seeded and cultured in each well of 384 well plate for 96 h and treated with compounds every 48 h. Luminescence was read at the endpoint with the Synergy NEO microplate reader (BioTek). The value of compound treated cells was normalized to their vehicle treated controls and then used to calculate IC50 in GraphPad Prism (RRID:SCR_002798).
(§2) Given the distinct functional profiles, CARD11 dependencies, and MALT1 activation effects of the BCL10 CARD and truncation mutants, the inventors designed experiments to evaluate whether, and to what extent, these mutant BCL10 proteins might confer BTK inhibitor resistance. Isogenic ABC-DLBCL cells expressing BCL10WT, BCL10^R58Q and BCL10^E140X proteins were treated with escalating doses of three chemically distinct covalent BTK inhibitors: ibrutinib, acalabrutinib, or zanubrutinib. The cellular proliferation rates of the treated cells were measured using an ATP fluorescence assay after 96 hours of drug exposure.
(§3) Isogenic BCL10^WT, BCL10^R58Q and BCL10^E140X ABC-DLBCLs were exposed to increasing concentrations of each of these compounds for 96 hours.

HBL1^R58Q = assay: Growth inhibition assay (CellTiter Glo), HBL1 cells expressing BCL10 R58Q; format: cell-based; conditions: Homo sapiens, 96 h, read-out: IC50, growth inhibition, MALT1 inhibitors
Procedure: as §1, §2, §3

OCI-LY10^WT = assay: Growth inhibition assay (CellTiter Glo), OCI-Ly10 cells expressing BCL10 WT; format: cell-based; conditions: Homo sapiens, 96 h, read-out: IC50, growth inhibition, MALT1 inhibitors
Procedure: as §1, §2, §3

OCI-LY10^R58Q = assay: Growth inhibition assay (CellTiter Glo), OCI-Ly10 cells expressing BCL10 R58Q; format: cell-based; conditions: Homo sapiens, 96 h, read-out: IC50, growth inhibition, MALT1 inhibitors
Procedure: as §1, §2, §3

OCI-LY10^E140X = assay: Growth inhibition assay (CellTiter Glo), OCI-Ly10 cells expressing BCL10 E140X; format: cell-based; conditions: Homo sapiens, 96 h, read-out: IC50, growth inhibition, MALT1 inhibitors
Procedure: as §1, §2, §3

[1] = target: T1, full-length MALT1 protein (Strep-MALT1(1-824)-His) (Homo sapiens, UniProt Q9UDY8); assay: Biochemical evaluation of MALT1 protease activity (Ac-LRSR-AMC cleavage); conditions: preincubated 50 min at RT, substrate Ac-LRSR-AMC 4 h; read-out: IC50, MALT1 enzyme
T1 construct: full-length MALT1 protein (Strep-MALT1(1-824)-His); Strep (N); His (C); made in house; host or cells: baculovirus-infected insect cells
T1 sequence (Q9UDY8 whole entry): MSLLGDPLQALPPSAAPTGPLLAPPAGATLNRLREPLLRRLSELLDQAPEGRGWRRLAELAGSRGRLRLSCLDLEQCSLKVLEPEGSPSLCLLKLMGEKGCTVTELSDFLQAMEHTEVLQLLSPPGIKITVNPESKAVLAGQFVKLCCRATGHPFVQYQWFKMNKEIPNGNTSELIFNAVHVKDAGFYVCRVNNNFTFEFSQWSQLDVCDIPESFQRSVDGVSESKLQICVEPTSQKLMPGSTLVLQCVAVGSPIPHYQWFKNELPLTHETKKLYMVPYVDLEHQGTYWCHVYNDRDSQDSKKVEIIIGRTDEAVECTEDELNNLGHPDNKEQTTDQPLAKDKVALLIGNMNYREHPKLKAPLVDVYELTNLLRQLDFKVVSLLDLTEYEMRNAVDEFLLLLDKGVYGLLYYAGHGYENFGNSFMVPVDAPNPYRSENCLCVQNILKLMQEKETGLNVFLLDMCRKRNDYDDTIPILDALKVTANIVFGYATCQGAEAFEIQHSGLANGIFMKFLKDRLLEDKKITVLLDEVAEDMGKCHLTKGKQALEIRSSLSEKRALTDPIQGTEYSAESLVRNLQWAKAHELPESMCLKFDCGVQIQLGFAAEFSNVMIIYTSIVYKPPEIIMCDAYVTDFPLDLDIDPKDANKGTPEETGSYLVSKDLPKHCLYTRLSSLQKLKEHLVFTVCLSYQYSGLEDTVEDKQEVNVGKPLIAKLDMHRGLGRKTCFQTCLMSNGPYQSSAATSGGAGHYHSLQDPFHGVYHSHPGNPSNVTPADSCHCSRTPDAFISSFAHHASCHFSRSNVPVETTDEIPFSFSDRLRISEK
Procedure: FIG. 21A. Chemical structure of JNJ-67690246. FIG. 21B. IC50 values for JNJ-67690246 in biochemical enzymatic and cellular cytokine secretion assays. MALT1 proteolytic IC50: purified recombinant MALT1 was preincubated for 50 min at RT with JNJ-67690246, substrate Ac-LRSR-AMC was then incubated for 4 h. MALT1 proteolytic activity was determined by measuring the increase of AMC fluorescence. […] FIG. 21C. Table for IC50 values of three different MALT1 inhibitors measured in HBL1 and OCI-Ly10 cells expressing WT and mutant BCL10. D-F. MALT1 activity measured in OCI-Ly10 GloSensor reporter cells treated with MALT1 inhibitors. […] FIG. 21G-I. NF-κB activity measured in NF-κB-RE-luciferase reporter cell lines treated with MALT1 inhibitors. […]
MALT1 protease activity was assessed in vitro using full-length MALT1 protein (Strep-MALT1(1-824)-His) purified from baculovirus-infected insect cells. […] Cleavage of AMC from the arginine residue results in an increase in coumarin fluorescence measured at 460 nm (excitation 355 nm). […] Substrate was added and the reaction was then incubated for 4 h at RT, after which fluorescence was measured.
MALT1 protease activity was assessed in vitro using full-length MALT1 protein (Strep-MALT1 (1-824)-His) purified from baculovirus-infected insect cells. […] Cleavage of AMC from the arginine residue results in an increase in coumarin fluorescence measured at 460 nm (excitation 355 nm). […]

[2] = test system: IL-6 secretion by OCI-Ly3 ABC-DLBCL cells; assay: IL-6 secretion assay using OCI-Ly3 cells (MSD); format: cell-based; conditions: Homo sapiens, 24 h, read-out: IC50, IL6 secretion
Procedure: (§4) FIG. 21A. Chemical structure of JNJ-67690246. FIG. 21B. IC50 values for JNJ-67690246 in biochemical enzymatic and cellular cytokine secretion assays. MALT1 proteolytic IC50: purified recombinant MALT1 was preincubated for 50 min at RT with JNJ-67690246, substrate Ac-LRSR-AMC was then incubated for 4 h. MALT1 proteolytic activity was determined by measuring the increase of AMC fluorescence. […] FIG. 21C. Table for IC50 values of three different MALT1 inhibitors measured in HBL1 and OCI-Ly10 cells expressing WT and mutant BCL10. D-F. MALT1 activity measured in OCI-Ly10 GloSensor reporter cells treated with MALT1 inhibitors. OCI-Ly10 MALT1 GloSensor cells were stably expressing wildtype and mutant BCL10, then treated with MALT1 inhibitors of different range (10-0.3 uM). FIG. 21G-I. NF-κB activity measured in NF-κB-RE-luciferase reporter cell lines treated with MALT1 inhibitors. HBL1 NF-κB reporter cells lines were stably expressing wildtype and mutant BCL10, and then treated with MALT1 inhibitors of different range (10-0.3 uM). NF-xB activity was performed 24 h after treatment. Error bars indicate SEM with 4 biological replicates. p<0.05; “p<0.01; “<0.001; ****p<0.0001; ns, not significant.
(§5) Secretion of the IL-6 and IL-10 cytokines by OCI-Ly3 ABC-DLBCL cells was measured using a Mesoscale assay (MSD). MALT1 inhibition results in a decrease of IL-6/10 secretion. […] Plates were read on a SECTOR imager.

[3] = test system: IL-10 secretion by OCI-Ly3 ABC-DLBCL cells; assay: IL-10 secretion assay using OCI-Ly3 cells (MSD); format: cell-based; conditions: Homo sapiens, 24 h, read-out: IC50, IL10 secretion
Procedure: as §4, §5

## Cc1nc(-n2nccn2)c(Cl)cc1NC(=O)c1cnn(-c2cccc3c(=O)[nH]ccc23)c1C(F)(F)F [JNJ-67690246]
HBL1^WT
  IC50: 1580 ± 500 nM
HBL1^R58Q
  IC50: 5770 ± 3020 nM
OCI-LY10^WT
  IC50: 320 ± 70 nM
OCI-LY10^R58Q
  IC50: 780 ± 200 nM
OCI-LY10^E140X
  IC50: 270 ± 20 nM
[1]
  IC50: 15 nM
[2]
  IC50: 60 nM
[3]
  IC50: 60 nM
